Publication PMC6770581, “New Thalidomide-Resembling Dicarboximides Target ABC50 Protein and Show Antileukemic and Immunomodulatory Activities” (Biomolecules, 2019)

Columns and labels:
Format in all cases: cell-based, human
[1] = system: caspases 8/9; assay: Caspase-Glo 8 and 9 luminescent activity assay in K562 cells; details: K562, 5× IC50, 6 h, control 1% DMSO = 1.0
Procedure: (§1) Louis, MO). The induction of cell apoptosis was analyzed by Apo-ONE® Homogeneous Caspase-3/7 Assay (Promega, Madison, WI, USA). […] The fluorescence in each well was measured in triplicate (excitation at 485 nm, emission measured at 520 nm) using a microplate reader FLUOStar Omega (BMG-Labtech, Offenburg, Germany). For normalization of the data, the caspase activity in the control cells (exposed to 1% DMSO) was taken as 1.0. […] Luminescence was measured (in triplicate) using a microplate reader FLUOStar Omega. For normalization of the data, the caspase activity in the control cells (exposed to 1% DMSO) was taken as 1.0.

[2] = system: caspases 8/9; assay: Caspase-Glo 8 and 9 luminescent activity assay in MOLT-4 cells; details: MOLT-4, 5× IC50, 3 h, control 1% DMSO = 1.0
Procedure: as §1

[3] = system: BAX, PMAIP1, HTRA2, TNFRSF 10B, ESRRBL1 mRNA; assay: Real-time RT-qPCR of apoptosis-related mRNAs in K562 cells; details: K562, 18 h, 3 10 µM, 6 5 µM (5× IC50), relative to 1% DMSO, normalized to GAPDH
Procedure: The total RNA pool was isolated from the cells lysates using TriPure Isolation Reagent (Roche, Basel, Switzerland) according to the manufacturer's instruction. Purity and integrity of RNA was checked spectrophotometrically with a NanoDrop ND-1000 spectrophotometer (Thermo Fisher Scientific, Waltham, MA, USA) and Agilent 2100 Bioanalyzer instrument. […] Reverse transcription and polymerase chain reaction (RT-PCR) amplification reactions were performed in one step using a LightCycler® 1.0 Instrument (Roche) and LightCycler RNA Amplification Kit SYBR Green I (Roche). […] The qRT-PCR reactions were optimized for each studied gene and performed according to a general protocol: a reverse transcription reaction (RT) for 10 min. at 55 °C, and a denaturation step for 30 s at 95 °C. The three steps of PCR quantification reaction included: I-denaturation (0 s at 95 °C), II-annealing (10 s at 60 °C), III-product extension (8 s at 72 °C), 45 cycles in total. Subsequent melting experiments were performed by quick denaturation at 95 °C, annealing over 10 s at 65 °C and heating up to 95 °C at 0.1 °C/s. The BAX, PMAIP1, HTRA2, TNFRSF 10B, and ESRRBL1 mRNA levels were normalized against a reference GAPDH mRNA. […]

[4] = system: caspase 3 and PARP; assay: Western blot of caspase 3 and PARP cleavage in K562 cells; details: 24 h
Procedure: 0.15 × 10^6 cells/ml were seeded on a 6-well plate (Nunclon, Thermo Fisher Scientific, Waltham, MA, USA). Following 24 hour preincubation the cells were treated with either the compound or 1% DMSO (control) for 24 or 48 hours. Cells were lysed using RIPA Buffer (Sigma) supplemented with Complete Protease Inhibitor Coctail (Roche, Basel, Switzerland) and PhosSTOP (Roche). Samples containing 20 µg protein were resuspended in 4× Laemmli’s Buffer (Biorad, Hercules, CA, USA), separated on 10% acrylamide gel (TGX Stain-Free Gel Kit, Biorad) and blotted onto nitrocellulose membrane (Panreac Applichem ITW, Darmstadt, Germany). Blots were blocked in 5% non-fat dry milk in TBST (1% (v/v) Tween-20, 140 mM NaCl, 25 mM Trizma, pH = 7.4 adjusted with HCl) for 1 h and incubated overnight with the antibodies against caspase-9 (9502), caspase-8 (9746), caspase-3 (9662), caspase-3 cleaved (9661) and β-actin (3700), all from Cell Signaling Technology, and antibody against poly(ADP-ribose)polymerase (PARP, 551025) from BD Pharmingen. Membranes were incubated with appropriate species-specific secondary antibodies conjugated with HRP (Cell Signaling Technology, Danvers, MA, USA). Blots were developed using ECL substrate (Biorad, Hercules, CA, USA). The experiment was performed in at least three independent biological replicates.

SMILES | increase of activity of caspases 8/9 compared to the control [1] | activation of caspases 8/9 compared to the control [2] | expression of mRNAs of receptor (TNFRSF 10B, ESRRBL1) and mitochondrial (BAX, PMAIP1, HTRA2) apoptotic pathways [3] | caspase 3 and PARP cleavage (Western blot) [4]
CN(C)CCN1C(=O)C2C(C1=O)C1(c3ccccc3)CC2(c2ccccc2)C(c2ccccc2)=C1c1ccccc1 (stereo not shown) [Compound 6] | more than 2 fold | more than 10 fold | significantly induced | 
CCC12C(=O)C(CC)(C(c3ccccc3)=C1c1ccccc1)C1C(=O)N(CCN3CCCCC3)C(=O)C12 (stereo not shown) [Compound 3] | more than 2 fold | more than 10 fold | significantly induced | 
CCC12C(=O)C(CC)(C(c3ccccc3)=C1c1ccccc1)C1C(=O)N(CC(O)CNC(C)C)C(=O)C12 (stereo not shown) [Compound 5] |  |  |  | presence of cleavage fragments of PARP (85 kDa) and caspase 3 (17 kDa)
